Earlier results, collected in patent US20020031490A1, “Method for preparing resinates” (priority 2000, published 2002).

For COc1ccc2c(c1)c(CC(=O)O)c(C)n2C(=O)c1ccc(Cl)cc1 [indomethacin], the “solubility of indomethacin in water” value is listed as 14 ppm.
